# Reference: patent US12357552B2, “Hydroxyquinoline compounds and methods of use as pigment modifying agents” (priority 2021, dated 2025)
# Read-outs that look alike come from different tables or passages of the source.
# Assays:
# MNT-1 cells [1] = experiment: viability assay in MNT-1 cell line; assay type: cell-based, human
# Text: Where Acmpd is the absorbance value for the test compound, and Ap and An are the absorbance values of the positive and negative controls, respectively. FIG. 6 depicts the reduction in melanin biosynthesis in MNT-1 cells by chloroxine, relative to the positive control phenylthiourea (PTU), a tyrosinase inhibitor commonly used as a melanin synthesis blocker. Other hydroxyquinoline drugs caused different effects in the MNT-1 cell line. At higher concentrations, the iodo-substituted compounds clioquinol (3) and iodoquinol (4) were toxic, with decreased cell counts in the viability assay.
# [2] = solubility in aqueous solution under the tyrosinase assay conditions; conditions: higher concentrations
# mushroom tyrosinase [3] = target: mushroom tyrosinase (Agaricus bisporus, UniProt C7FF04); experiment: fluorescence-based tyrosinase assay with substrate PAP-AMC (monophenolase activity)
# Experimental: Enzyme activity was measured using the fluorescent substrate PAP-AMC. […] Fluorescence spectroscopy was carried out on a Carey Eclipse spectrophotometer. Fluorescence intensity was measured at 6-second intervals in quartz cuvettes kept at 37° C. […] In vitro fluorescence assays using mushroom tyrosinase (Worthington Biochemicals) were performed in 50 mM sodium phosphate buffer, pH 7.4 with the fluorescent tyrosinase substrate, PAP-AMC (Biovision). Varying concentrations of inhibitors were used as indicated. Data represent the mean±SD of three independent experiments.
# After 5 minute incubation, inhibitor was added as a solution in DMSO. After an additional 2 minute incubation, a DMSO solution of PAP-AMC (0.02 mL of 1 mM solution) was added and, after thoroughly mixing, the reaction was monitored by fluorescence (λ excitation=350 nm; λ emission=440 nm). Initial rates were calculated using the slope of the curve for the first ca. 10% of the reaction. The first 1 min of the reaction were not used owing to the usual induction period observed with tyrosinase. Inhibition assays were performed in triplicate trials. Non-linear regression and curve fitting were done using Prism software (Graphpad Inc). […] The experiment was performed in triplicate at pH 7.4 and data were plotted according to Lineweaver-Burk. Data represent the mean±SD of three independent experiments.
# MNT-1 cells [4] = experiment: inhibition of melanin production in human melanoma MNT-1 cells; assay type: cell-based; conditions: 3 days
# Experimental: To assess melanogenesis inhibition within cells, the human melanoma MNT-1 cell line (CRL-3450 from ATCC), cultured and divided according to the recommended protocol, was subjected to varying concentrations of chloroxine (2) and the other hydroxyquinoline drugs. The MNT-1 cell line was chosen because it was previously used successfully for quantifying melanin synthesis (Hah et al., 2012). Frozen stocks (3.8×10^6 cells) of cells were thawed in a 37° C. water bath, then plated into three 10-cm plates containing 10 mL of MDEM+10% fetal bovine serum and 100 μL of 100× Penicillin/Streptomycin. When the cells became confluent, medium was aspirated, cells were rinsed with sterile phosphate-buffered saline (PBS), and then treated with 1 mL of 0.25% trypsin with 0.02% EDTA at 37° C. for 3 min. When the cells became loose, 4 mL of medium was added to neutralize the trypsin. FIG. 5 depicts the inhibition of melanin production in MNT-1 cells by chloroxine, an inhibitor of tyrosinase, at concentrations indicated. Cells were incubated with chloroxine for 3 days and then harvested, with melanin quantified after cell lysis, measuring absorbance at 405 nm. […]
# Where Acmpd is the absorbance value for the test compound, and Ap and An are the absorbance values of the positive and negative controls, respectively. […]
# mushroom tyrosinase [5] = experiment: assessment of reversibility: residual tyrosinase activity after ultrafiltration, with or without exogenous copper sulfate; assay type: biochemical; conditions: 5 μM inhibitor
# Experimental: To gain further insight into the mode of action of the hydroxyquinoline drugs, residual enzyme activity was assessed after separation of the drug from the enzyme. This is generally done to assess whether the inhibitor acts in a reversible or irreversible manner. After incubation and measurement of tyrosinase activity, the drug nitroxoline (1) was separated from the reaction mixture in a Centricon centrifugal filter device, and enzymatic activity remeasured with fresh PAPAMC substrate.
# When residual activity was measured after ultracentrifugation, less than 10% of the original activity remained (FIG. 4(b)). […]
# To assess reversibility of enzyme inhibition, a reaction mixture containing 5 μM inhibitor was placed into Amicon Ultra centrifugal filters (10 K MWCO), concentrated at 4000 rpm for 10 minutes, followed by dilution with sodium phosphate buffer for a total of three cycles. If reconstitution of enzyme activity was being evaluated, exogenous copper sulfate was added to the remaining solution to a final concentration of 0.1 mM. Then fresh L-DOPA and PAP-AMC substrate was added and fluorescence change measured as previously described. […]
# tyrosinase = conditions: cited from earlier work
# Chain of mushroom tyrosinase (Agaricus bisporus, UniProt C7FF04) (C7FF04 1-392): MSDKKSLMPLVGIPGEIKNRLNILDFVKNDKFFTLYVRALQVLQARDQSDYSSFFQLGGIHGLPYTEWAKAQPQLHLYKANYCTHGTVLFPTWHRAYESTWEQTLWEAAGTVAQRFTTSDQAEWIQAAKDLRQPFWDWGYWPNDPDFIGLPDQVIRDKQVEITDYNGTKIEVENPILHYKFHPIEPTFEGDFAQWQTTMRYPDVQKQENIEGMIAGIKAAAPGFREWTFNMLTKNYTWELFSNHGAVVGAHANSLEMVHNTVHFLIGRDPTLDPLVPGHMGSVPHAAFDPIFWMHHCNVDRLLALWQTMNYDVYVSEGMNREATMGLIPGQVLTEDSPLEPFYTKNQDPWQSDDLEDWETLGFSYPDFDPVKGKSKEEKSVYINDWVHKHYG
compound,measurement,setting,value
iodoquinol,toxicity (cell counts in the viability assay),"MNT-1 cells [1]; MNT-1 cells, higher concentrations",toxic
same,solubility in aqueous solution,[2],less soluble in aqueous solution
same,inhibitory constant (in words),mushroom tyrosinase [3]; monophenolase activity of tyrosinase,high micromolar
same,Ki,"mushroom tyrosinase [3]; mushroom tyrosinase, PAP-AMC substrate, pH 7.4",1290 µM
Oc1c(I)cc(Cl)c2cccnc12 [clioquinol],toxicity (cell counts in the viability assay),MNT-1 cells [1],toxic
same,Ki,mushroom tyrosinase [3],367 µM
Oc1c(Cl)cc(Cl)c2cccnc12 [chloroxine],ability to block melanin production,MNT-1 cells [4],dose-dependent
same,IC50,"MNT-1 cells [4]; Homo sapiens, 72 h, absorbance at 405 nm, read-out: IC50 value for blocking melanin synthesis",~1.5 µM
same,toxicity (cell counts in the viability assay),MNT-1 cells [1],not toxic
same,solubility in aqueous solution,[2],did not show evidence of insolubility
same,Ki,mushroom tyrosinase [3],~12 µM
O=[N+]([O-])c1ccc(O)c2ncccc12 [nitroxoline],enzyme activity after incubation of the concentrate with exogenous copper sulfate,"mushroom tyrosinase [5]; after ultrafiltration, 0.1 mM copper sulfate",substantial recovery of original enzyme activity
same,"residual activity after ultracentrifugation, of the original activity",mushroom tyrosinase [5]; no exogenous copper sulfate,less than 10%
same,toxicity (cell counts in the viability assay),MNT-1 cells [1],not toxic
same,Ki,mushroom tyrosinase [3],0.9 µM
same,type of enzyme inhibition (Lineweaver-Burk),"mushroom tyrosinase [3]; varying substrate and inhibitor concentrations, pH 7.4",competitive inhibitor
O=c1cc(CO)occ1O [kojic acid],inhibition of tyrosinase,tyrosinase,high micromolar
